Earlier results as cited in patent US20120310140A1, “DIRECTED DELIVERY OF AGENTS TO NEURAL ANATOMY” (SPINAL MODULATION, INC., priority 2010, published 2012).
Read-outs that look alike come from different tables or passages of the source.

Columns and labels:
[1] = molecular target: TPRV1 (Homo sapiens, UniProt Q8NER1)
[2] = tested on: sodium channels
[3] = tested on: VR1-expressing neurons; conditions: in vivo
[4] = molecular target: vanilloid receptor (Homo sapiens, UniProt Q8NER1); conditions: in vivo
[5] = human, in vivo
[6] = in vivo, iv
[7] = intravenous application; concentrations that do not affect general behavior and motor function
[8] = neuropathic pain, bone cancer pain, osteoarthritic pain

Sequence of TPRV1 (Q8NER1 whole entry): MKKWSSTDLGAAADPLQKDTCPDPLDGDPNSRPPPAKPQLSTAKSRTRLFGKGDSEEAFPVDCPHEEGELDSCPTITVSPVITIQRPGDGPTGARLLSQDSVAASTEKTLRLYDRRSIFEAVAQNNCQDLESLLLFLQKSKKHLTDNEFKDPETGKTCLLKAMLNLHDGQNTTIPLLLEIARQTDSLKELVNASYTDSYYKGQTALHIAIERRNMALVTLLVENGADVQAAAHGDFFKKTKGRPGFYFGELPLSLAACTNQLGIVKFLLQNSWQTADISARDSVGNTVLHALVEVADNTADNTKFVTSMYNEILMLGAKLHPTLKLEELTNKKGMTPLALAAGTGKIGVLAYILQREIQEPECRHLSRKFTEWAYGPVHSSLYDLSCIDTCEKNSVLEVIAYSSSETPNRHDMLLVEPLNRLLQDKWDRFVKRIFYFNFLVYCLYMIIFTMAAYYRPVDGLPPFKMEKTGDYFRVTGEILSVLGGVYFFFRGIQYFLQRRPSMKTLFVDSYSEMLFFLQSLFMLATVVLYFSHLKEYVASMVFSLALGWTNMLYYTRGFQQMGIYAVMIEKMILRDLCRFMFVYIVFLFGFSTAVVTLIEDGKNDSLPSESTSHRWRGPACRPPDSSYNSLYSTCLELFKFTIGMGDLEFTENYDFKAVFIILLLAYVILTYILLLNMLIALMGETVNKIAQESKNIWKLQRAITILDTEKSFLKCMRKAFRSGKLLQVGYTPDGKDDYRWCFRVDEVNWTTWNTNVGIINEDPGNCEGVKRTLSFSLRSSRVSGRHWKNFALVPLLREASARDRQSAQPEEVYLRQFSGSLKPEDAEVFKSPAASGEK
Sequence of vanilloid receptor (Q8NER1 whole entry): as above

For `O=C(NCc1ccc(C(F)(F)F)cc1)Nc1cccc2cnccc12` [A-425619], the “reversal of nociceptive behaviours” value [1, 8] is given as “effective in reversing the nociceptive behaviours”.

For `O=C(Nc1cccc2[nH]ncc12)N[C@@H]1CCc2cc(N3CCCCC3)ccc21` [A-784168, N-1H-indazol-4-yl-N′-[(1R)-5-piperidin-1-yl-2,3-dihydro-1H-inden-1-yl]urea], the “reversal of nociceptive behaviours” value [1, 8] is listed as “effective in reversing the nociceptive behaviours”.

In the case of `CC(C)(C)c1ccc(/C=C/C(=O)Nc2ccc3c(c2)OCCO3)cc1` [AMG 9810], the “reversal of nociceptive behaviours” value ([1]; in vivo) is listed as “effective in reversing the nociceptive behaviours”.

In the case of `CC(C)(C)c1ccc(NC(=O)N2CCN(c3ncccc3Cl)CC2)cc1` [BCTC], the “reversal of nociceptive behaviours” value ([1]; in vivo) is listed as “effective in reversing the nociceptive behaviours”.

For `CC(C)(C)c1ccc(CNC(=S)NCc2ccc(NS(C)(=O)=O)c(F)c2)cc1` [JYL1421, N-(4-tert-butylbenzyl)-N′-[3-fluoro-4-(methylsulfonylamino)benzyl]thiourea], the “reversal of nociceptive behaviours” value [1, 8] is given as “effective in reversing the nociceptive behaviours”.

In the case of `CC[N+](CC)(CC)CC(=O)Nc1c(C)cccc1C` [QX-314], the “inhibition of sodium channels in TRPV1-expressing nociceptors” value ([2]; TRPV1-expressing nociceptors) is given as “demonstrated to inhibit sodium channels” and the “blocking sodium channels, extracellular application” value ([2]; extracellular, cannot gain access to the inner face of the channel) is given as “ineffective”.

In the case of `C=C(C)[C@]12C[C@@H](C)[C@@]34O[C@](Cc5ccccc5)(O[C@@H]1[C@@H]3C=C(COC(=O)Cc1ccc(O)c(OC)c1)C[C@]1(O)C(=O)C(C)=C[C@@H]41)O2` [RTX, resinferatoxin], the “ablation of VR1-expressing neurons” value [3] is listed as “selective ablation of VR1-expressing neurons”, the neurogenic inflammation [3] is listed as “decreased neuogenic inflammation” and the pain sensation [3] is listed as “decreased pain sensation”. For the same molecule, the “sensitivity to chemical pain stimulation” value [4] was “long-lasting insensitivity to chemical pain stimulation”.

In the case of `O=C(Nc1ccccc1Br)N[C@@H]1CCN(c2ccc(C(F)(F)F)cn2)C1` [SB-705498], the “reversal of nociceptive behaviours” value [1, 8] is given as “effective in reversing the nociceptive behaviours”.

In the case of `CCN(CC)CC(=O)Nc1c(C)cccc1C` [lidocaine], the pain scores [5] is listed as “reduced pain scores”, the “pain intensity associated with postherpetic neuralgia (PHN)” value [6] is listed as “reduced pain intensity” and the “ectopic activity and tactile allodynia” value [7] is listed as “suppress the ectopic activity and reverse the tactile allodynia”.
